From patent publication US7902248B2, “Oxime glucokinase activators” (Hoffmann-La Roche Inc., priority 2006, dated 2011)

The compounds below were run against T1, Recombinant human liver GK (GST-GK) (Homo sapiens, UniProt P35557) (assay: In vitro glucokinase activity assay (G6PDH-coupled NADH generation, OD 340 nm)). Conditions: concentration of activator that produced a 50% increase in the activity of GK; 5 mM D-glucose, 25° C.-30° C., pH 7.1.
T1 construct: made in house; host or cells: E. coli
T1 sequence (P35557 1-466 isoform P35557-2): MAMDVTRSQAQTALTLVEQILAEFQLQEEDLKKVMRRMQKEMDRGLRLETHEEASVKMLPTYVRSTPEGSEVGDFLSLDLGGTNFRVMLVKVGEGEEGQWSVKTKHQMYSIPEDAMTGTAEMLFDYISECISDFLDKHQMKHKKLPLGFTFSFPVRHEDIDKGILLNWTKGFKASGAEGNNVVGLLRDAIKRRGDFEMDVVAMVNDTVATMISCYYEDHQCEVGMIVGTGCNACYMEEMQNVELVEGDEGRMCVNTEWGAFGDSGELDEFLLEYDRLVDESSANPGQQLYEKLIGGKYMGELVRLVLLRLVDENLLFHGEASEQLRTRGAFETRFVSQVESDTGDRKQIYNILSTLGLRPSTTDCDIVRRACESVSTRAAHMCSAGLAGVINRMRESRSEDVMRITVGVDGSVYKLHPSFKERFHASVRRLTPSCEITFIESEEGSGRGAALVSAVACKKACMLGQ
Format: biochemical
Description: Glucokinase In Vitro Assay Protocol. Glucokinase (GK) was assayed by coupling the production of glucose-6-phosphate to the generation of NADH with glucose-6-phosphate dehydrogenase (G6PDH, Roche) from Leuconostoc mesenteroides as the coupling enzyme (Scheme 2).
Recombinant human liver GK was expressed in E. coli as a glutathione S-transferase fusion protein (GST-GK) [Liang et al, 1995] and was purified by chromatography over a glutathione-Sepharose 4B affinity column using the procedure provided by the manufacturer (Amersham Pharmacia Biotech, Piscataway, N.J.).
The assay was conducted at 25° C.-30° C. in a flat bottom 96-well tissue culture plate from Costar (Cambridge, Mass.) with a final incubation volume of 120 μL. The incubation reaction contained the following: 25 mM Hepes buffer (pH 7.1), 25 mM KCl, 5 mM D-glucose, 1 mM ATP, 1.8 mM NAD, 2 mM MgCl2, 1 μM sorbitol-6-phosphate, 1 mM dithiothreitol, test drug or 10% DMSO, 1.8 unit/ml G6PDH, and GK (see below). All organic reagents were >98% pure and were from Roche with the exceptions of D-glucose and Hepes which were from Sigma Chemical Co, St Louis, Mo. Test compounds were dissolved in DMSO and were added to the incubation reaction minus GST-GK in a volume of 12 μL to yield a final DMSO concentration of 10%. This mix was pre-incubated in the temperature controlled chamber of a SPECTRAmax 250 microplate spectrophotometer (Molecular Devices Corporation, Sunnyvale, Calif.) for 10 minutes to allow temperature equilibrium and then the reaction was started by the addition of 20 μL GST-GK.
After addition of enzyme, the increase in optical density (OD) at 340 nm was monitored over a 15 minute incubation period as a measure of GK activity. The GK activity in control wells (mOD/min) was compared with the activity in wells containing test GK activators (mOD/min), and the concentration of activator that produced a 50% increase in the activity of GK, i.e., the SC1.5, was calculated.

Row | Structure (SMILES) | SC1.5 [µM]
1 | CC(C)O/N=C(/C(=O)Nc1nc2ccccc2s1)c1ccc(S(C)(=O)=O)c(Cl)c1 [Example 7, (E)-N-Benzothiazol-2-yl-2-(3-chloro-4-methanesulfonyl-phenyl)-2-isopropoxyimino-acetamide] | 0.79
2 | Cn1ccc(NC(=O)/C(=N/OC2CCCCC2)c2ccc(S(C)(=O)=O)c(Cl)c2)n1 [Example 9, (E)-2-(3-Chloro-4-methanesulfonyl-phenyl)-2-cyclohexyloxyimino-N-(1-methyl-1H-pyrazol-3-yl)-acetamide] | 12
3 | Cc1nsc(NC(=O)/C(=N/OC2CCCCC2)c2ccc(S(C)(=O)=O)c(Cl)c2)n1 [Example 10, (E)-2-(3-Chloro-4-methanesulfonyl-phenyl)-2-cyclohexyloxyimino-N-(3-methyl-[1,2,4]thiadiazol-5-yl)-acetamide] | 8.4
4 | CS(=O)(=O)c1ccc(/C(=N\OC2CCCCC2)C(=O)Nc2ncc(C(N)=O)s2)cc1Cl [Example 12, (E)-2-[2-(3-Chloro-4-methanesulfonyl-phenyl)-2-cyclohexyloxyimino-acetylamino]-thiazole-5-carboxylic acid amide] | 1.1
5 | CS(=O)(=O)c1ccc(/C(=N\OC2CCCC2)C(=O)Nc2nc3ccccc3s2)cc1Cl [Example 14, (E)-N-Benzothiazol-2-yl-2-(3-chloro-4-methanesulfonyl-phenyl)-2-cyclopentyloxyimino-acetamide] | 0.26
6 | CC(C)CO/N=C(/C(=O)Nc1ccn(C)n1)c1ccc(S(C)(=O)=O)c(Cl)c1 [Example 24, (E)-2-(3-Chloro-4-methanesulfonyl-phenyl)-2-isobutoxyimino-N-(1-methyl-1H-pyrazol-3-yl)-acetamide] | 5.3
7 | CC(C)CO/N=C(/C(=O)Nc1nc2ccccc2s1)c1ccc(S(C)(=O)=O)c(Cl)c1 [Example 25, (E)-N-Benzothiazol-2-yl-2-(3-chloro-4-methanesulfonyl-phenyl)-2-isobutoxyimino-acetamide] | 1.6

Results, then the compound that gave them:

Row | SC1.5 [µM] | Structure (SMILES)
8 | 29 | O=C(Nc1nc2ccccc2s1)/C(=N/OC1CCCC1)c1ccc(Cl)c(Cl)c1 [Example 19, (E)-N-Benzothiazol-2-yl-2-cyclopentyloxyimino-2-(3,4-dichloro-phenyl)-acetamide]
9 | 2.8 | CS(=O)(=O)c1ccc(/C(=N\OC2CCCC2)C(=O)Nc2nc3ccc(Cl)cc3s2)cc1Cl [Example 23, (E)-N-(6-Chloro-benzothiazol-2-yl)-2-(3-chloro-4-methanesulfonyl-phenyl)-2-cyclopentyloxyimino-acetamide]
10 | 0.35 | CS(=O)(=O)c1ccc(/C(=N\OC2CCCC2)C(=O)Nc2ccn(Cc3cccnc3)n2)cc1Cl [Example 31, (E)-2-(3-Chloro-4-methanesulfonyl-phenyl)-2-cyclopentyloxyimino-N-(1-pyridin-3-ylmethyl-1H-pyrazol-3-yl)-acetamide]
